The text below walks through data of patent US20240238423A9, “TETRAHYDROISOQUINOLINE HETEROBIFUNCTIONAL BCL-XL DEGRADERS” (Treeline Biosciences, Inc., priority 2022, published 2024).

The target in the experiment is T1, Human BCL-XL protein (N-terminal HiBiT tagged BCL-XL in HT1080 cells) (Homo sapiens, UniProt Q07817).
T1 construct: expressed in transfected cells; host or cells: HT-1080 (ATCC CCL-121), stably transduced with lentivirus pLV-UBC-N-HiBiT-BCL-XL-PGK-puro and selected with puromycin
T1 sequence (Q07817 whole entry): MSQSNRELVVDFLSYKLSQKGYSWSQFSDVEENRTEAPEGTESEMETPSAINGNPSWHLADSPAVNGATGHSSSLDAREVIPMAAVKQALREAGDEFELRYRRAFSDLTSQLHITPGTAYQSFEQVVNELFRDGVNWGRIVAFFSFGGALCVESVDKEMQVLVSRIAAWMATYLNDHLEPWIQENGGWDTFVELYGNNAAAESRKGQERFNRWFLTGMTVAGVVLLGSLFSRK
The experiment in a line: HiBiT based degradation assay. In kind it is cell-based. The following applies: HT1080 cells expressing HiBiT-BCL-XL; for Ymin (24 h) / Ymin (6 h): BCL-XL degradation normalized with DMSO control; for DC50: BCL-XL degradation. The essentials: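 HT1080 cells stably transduced by lentivirus with N-terminally HiBiT-tagged human BCL-XL and kept under 1 μg/mL puromycin selection were seeded at three thousand cells per well in 40 μL RPMI 1640 into 384-well plates pre-spotted with compounds across a concentration range. Luminescence was read on a PHERAstar FSX, normalized to DMSO, and fitted with a four-parameter logistic model.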
(With HiBiT, luminescence reflects the tagged protein that the partner subunit can reach.)

Structures are written as SMILES. Read-outs that look alike come from different tables or passages of the source.

Regarding `Cc1c(O[C@H]2CC[C@@H](CCC(=O)N3CCN(c4cccc5c(C6CCC(=O)NC6=O)nn(C)c45)CC3)CC2)cccc1-c1ccc(N2CCc3cccc(C(=O)Nc4nc5ccccc5s4)c3C2)nc1C(=O)O` (stereo partly shown) [Compound 146b, 6-(8-(benzo[d]thiazol-2-ylcarbamoyl)-3,4-dihydroisoquinolin-2(1H)-yl)-3-(3-(((1s,4s)-4-(3-(4-(3-(2,6-dioxopiperidin-3-yl)-1-methyl-1H-indazol-7-yl)piperazin-1-yl)-3-oxopropyl)cyclohexyl)oxy)-2-methylphenyl)picolinic acid], the “Ymin (24 h)” value (24 h) is recorded as “B (50% ≤ Ymin < 70%)”. For the same molecule, under “24 h, read-out: EC50 (24 h)”, the DC50 was in the range of 100 to 1000 nM.
For `Cc1c(Oc2ccc(CCN3CCN(c4ccc5c(C6CCC(=O)NC6=O)nn(C)c5c4)CC3)cc2)cccc1-c1ccc(N2CCc3cccc(C(=O)Nc4nc5ccccc5s4)c3C2)nc1C(=O)O` (stereo not shown) [Compound 208, 6-[8-(1,3-benzothiazol-2-ylcarbamoyl)-3,4-dihydro-1H-isoquinolin-2-yl]-3-[3-[4-[2-[4-[3-(2,6-dioxo-3-piperidyl)-1-methyl-indazol-6-yl]piperazin-1-yl]ethyl]phenoxy]-2-methyl-phenyl]pyridine-2-carboxylic acid], in that order: “A (Ymin < 50%)” and less than 100 nM.
With `Cc1c(OCCCC2CCN(CC(=O)N3CCN(c4cccc5c(C6CCC(=O)NC6=O)nn(C)c45)CC3)CC2)cccc1-c1ccc(N2CCc3cccc(C(=O)Nc4nc5ccccc5s4)c3C2)nc1C(=O)O` (stereo not shown) [Compound 144, 6-[8-(1,3-benzothiazol-2-ylcarbamoyl)-3,4-dihydro-1H-isoquinolin-2-yl]-3-[3-[3-[1-[2-[4-[3-(2,6-dioxo-3-piperidyl)-1-methyl-indazol-7-yl]piperazin-1-yl]-2-oxo-ethyl]-4-piperidyl]propoxy]-2-methyl-phenyl]pyridine-2-carboxylic acid], the “Ymin (6 h)” value (6 h) is reported as “A (Ymin < 50%)”. For the same molecule, the “Ymin (24 h)” value (24 h) is “A (Ymin < 50%)”. For the same molecule, the DC50 was less than 100 nM (6 h, read-out: EC50 (6 h)) and less than 100 nM (24 h, read-out: EC50 (24 h)).
As for `Cc1c(OCCCC2CCN(C(C)(C)C(=O)Nc3ccc4c(C5CCC(=O)NC5=O)nn(C)c4c3)CC2)cccc1-c1ccc(N2CCc3cccc(C(=O)Nc4nc5ccccc5s4)c3C2)nc1C(=O)O` (stereo not shown) [Compound 166, 6-[8-(1,3-benzothiazol-2-ylcarbamoyl)-3,4-dihydro-1H-isoquinolin-2-yl]-3-[3-[3-[1-[2-[[3-(2,6-dioxo-3-piperidyl)-1-methyl-indazol-6-yl]amino]-1,1-dimethyl-2-oxo-ethyl]-4-piperidyl]propoxy]-2-methyl-phenyl]pyridine-2-carboxylic acid], the “Ymin (24 h)” value (24 h) is “B (50% ≤ Ymin < 70%)”. Under “24 h, read-out: EC50 (24 h)”, the DC50 was 100 to 1000 nM.
For `Cn1nc(C2CCC(=O)NC2=O)c2ccc(N3CCN(CCC[C@H]4CC[C@H](Oc5cccc(-c6ccc(N7CCc8cccc(C(=O)Nc9nc%10ccccc%10s9)c8C7)nc6C(=O)O)c5C(F)(F)F)CC4)CC3)cc21` (stereo partly shown) [Compound 328a, 6-(8-(benzo[d]thiazol-2-ylcarbamoyl)-3,4-dihydroisoquinolin-2(1H)-yl)-3-(3-(((1s,4r)-4-(3-(4-(3-(2,6-dioxopiperidin-3-yl)-1-methyl-1H-indazol-6-yl)piperazin-1-yl)propyl)cyclohexyl)oxy)-2-(trifluoromethyl)phenyl)picolinic acid], in that order: “A (Ymin < 50%)” and less than 100 nM.
The matching figures for `Cc1c(O[C@H]2CC[C@H](CCC[C@H](C)N3CCN(c4ccc5c(C6CCC(=O)NC6=O)nn(C)c5c4)CC3)CC2)cccc1-c1ccc(N2CCc3cccc(C(=O)Nc4nc5ccccc5s4)c3C2)nc1C(=O)O` (single isomer, unassigned) [Compound 333a]: “A (Ymin < 50%)” and less than 100 nM.
For `Cc1c(OCC[C@H]2CCCN(CC(=O)Nc3ccc4c(C5CCC(=O)NC5=O)nn(C)c4c3)C2)cccc1-c1ccc(N2CCc3cccc(C(=O)Nc4nc5ccccc5s4)c3C2)nc1C(=O)O` (stereo partly drawn) [Compound 180b, 6-(8-(benzo[d]thiazol-2-ylcarbamoyl)-3,4-dihydroisoquinolin-2(1H)-yl)-3-(3-(2-((3R)-1-(2-((3-(2,6-dioxopiperidin-3-yl)-1-methyl-1H-indazol-6-yl)amino)-2-oxoethyl)piperidin-3-yl)ethoxy)-2-methylphenyl)picolinic acid], in that order: “B (50% ≤ Ymin < 70%)” and less than 100 nM.
`Cc1cc(O[C@H]2CC[C@H](CCC(=O)N3CCN(c4cccc5c(C6CCC(=O)NC6=O)nn(C)c45)CC3)CC2)ccc1-c1ccc(N2CCc3cccc(C(=O)Nc4nc5ccccc5s4)c3C2)nc1C(=O)O` (stereo partly shown) [Compound 252a, 6-(8-(benzo[d]thiazol-2-ylcarbamoyl)-3,4-dihydroisoquinolin-2(1H)-yl)-3-(4-(((1r,4r)-4-(3-(4-(3-(2,6-dioxopiperidin-3-yl)-1-methyl-1H-indazol-7-yl)piperazin-1-yl)-3-oxopropyl)cyclohexyl)oxy)-2-methylphenyl)picolinic acid]: the “Ymin (24 h)” value (24 h) was “A (Ymin < 50%)”. Moreover, the DC50 (24 h, read-out: EC50 (24 h)) is less than 100 nM.
For `Cc1c(OCCN2CCN(CC3CCN(c4ccc5c(C6CCC(=O)NC6=O)nn(C)c5c4)CC3)CC2)cccc1-c1ccc(N2CCc3cccc(C(=O)Nc4nc5ccccc5s4)c3C2)nc1C(=O)O` (stereo not shown) [Compound 198, 6-(8-(benzo[d]thiazol-2-ylcarbamoyl)-3,4-dihydroisoquinolin-2(1H)-yl)-3-(3-(2-(4-((1-(3-(2,6-dioxopiperidin-3-yl)-1-methyl-1H-indazol-6-yl)piperidin-4-yl)methyl)piperazin-1-yl)ethoxy)-2-methylphenyl)picolinic acid], in that order: “A (Ymin < 50%)” and less than 100 nM.
The matching figures for `Cc1c(O[C@H]2CC[C@H](CCCCN3CCN(c4ccc5c(C6CCC(=O)NC6=O)nn(C)c5c4)C[C@H]3C)CC2)cccc1-c1ccc(N2CCc3cccc(C(=O)Nc4nc5ccccc5s4)c3C2)nc1C(=O)O` (stereo partly drawn) [Compound 297a, 6-(8-(benzo[d]thiazol-2-ylcarbamoyl)-3,4-dihydroisoquinolin-2(1H)-yl)-3-(3-(((1s,4r)-4-(4-((2R)-4-(3-(2,6-dioxopiperidin-3-yl)-1-methyl-1H-indazol-6-yl)-2-methylpiperazin-1-yl)butyl)cyclohexyl)oxy)-2-methylphenyl)picolinic acid]: “A (Ymin < 50%)” and less than 100 nM.
For `Cc1c(O[C@H]2CC[C@H](CCCCN3CCN(c4ccc5c(C6CCC(=O)NC6=O)nn(C)c5c4)C(C)(C)C3)CC2)cccc1-c1ccc(N2CCc3cccc(C(=O)Nc4nc5ccccc5s4)c3C2)nc1C(=O)O` (stereo partly shown) [Compound 322a, 6-(8-(benzo[d]thiazol-2-ylcarbamoyl)-3,4-dihydroisoquinolin-2(1H)-yl)-3-(3-(((1s,4r)-4-(4-(4-(3-(2,6-dioxopiperidin-3-yl)-1-methyl-1H-indazol-6-yl)-3,3-dimethylpiperazin-1-yl)butyl)cyclohexyl)oxy)-2-methylphenyl)picolinic acid], in that order: “A (Ymin < 50%)” and less than 100 nM.
On to `Cc1c(OCCCC[C@H]2CCCN(CC(=O)Nc3cccc4c(C5CCC(=O)NC5=O)nn(C)c34)C2)cccc1-c1ccc(N2CCc3cccc(C(=O)Nc4nc5ccccc5s4)c3C2)nc1C(=O)O` (stereo partly drawn) [Compound 186b, 6-[8-(1,3-benzothiazol-2-ylcarbamoyl)-3,4-dihydro-1H-isoquinolin-2-yl]-3-[3-[4-[(3S)-1-[2-[[3-(2,6-dioxo-3-piperidyl)-1-methyl-indazol-7-yl]amino]-2-oxo-ethyl]-3-piperidyl]butoxy]-2-methyl-phenyl]pyridine-2-carboxylic acid], for which the “Ymin (24 h)” value (24 h) is recorded as “C (Ymin ≥ 70%)”. Where the note is “24 h, read-out: EC50 (24 h)”, the DC50 lay within 1000 to 10000 nM.
For `Cc1c(OCC[C@@H]2CCC3(CCN(CC(=O)Nc4ccc5c(C6CCC(=O)NC6=O)nn(C)c5c4)CC3)C2)cccc1-c1ccc(N2CCc3cccc(C(=O)Nc4nc5ccccc5s4)c3C2)nc1C(=O)O` (single isomer, unassigned) [Compound 272b, 6-(8-(benzo[d]thiazol-2-ylcarbamoyl)-3,4-dihydro-isoquinolin-2(1 h)-yl)-3-(3-(2-((2r)-8-(2-((3-(2,6-dioxopiperidin-3-yl)-1-methyl-1 h-indazol-6-yl)amino)-2-oxoethyl)-8-azaspiro[4.5]decan-2-yl)ethoxy)-2-methylphenyl)picolinic acid], in that order: “A (Ymin < 50%)” and less than 100 nM.
Turning to `Cc1cc(OCCCN2CCN(CC(=O)Nc3ccc4c(C5CCC(=O)NC5=O)nn(C)c4c3)CC2)ccc1-c1ccc(N2CCc3cccc(C(=O)Nc4nc5ccccc5s4)c3C2)nc1C(=O)O` (stereo not shown) [Compound 119, 6-[8-(1,3-benzothiazol-2-ylcarbamoyl)-3,4-dihydro-1H-isoquinolin-2-yl]-3-[4-[3-[4-[2-[[3-(2,6-dioxo-3-piperidyl)-1-methyl-indazol-6-yl]amino]-2-oxo-ethyl]piperazin-1-yl]propoxy]-2-methyl-phenyl]pyridine-2-carboxylic acid], the “Ymin (6 h)” value (6 h) is “A (Ymin < 50%)”. Besides, the “Ymin (24 h)” value (24 h) is “A (Ymin < 50%)”. Also, the DC50 (6 h, read-out: EC50 (6 h)) was less than 100 nM and the DC50 (24 h, read-out: EC50 (24 h)) was less than 100 nM.
For the molecule `Cc1c(OCCC[C@H]2CCN(CC(=O)Nc3cccc4c(C5CCC(=O)NC5=O)nn(C)c34)C2)cccc1-c1ccc(N2CCc3cccc(C(=O)Nc4nc5ccccc5s4)c3C2)nc1C(=O)O` (stereo partly drawn) [Compound 240b, 6-(8-(benzo[d]thiazol-2-ylcarbamoyl)-3,4-dihydroisoquinolin-2(1H)-yl)-3-(3-(3-((3S)-1-(2-((3-(2,6-dioxopiperidin-3-yl)-1-methyl-1H-indazol-7-yl)amino)-2-oxoethyl)pyrrolidin-3-yl)propoxy)-2-methylphenyl)picolinic acid], the “Ymin (24 h)” value (24 h) is given as “B (50% ≤ Ymin < 70%)”. Also, the DC50 (24 h, read-out: EC50 (24 h)) is less than 100 nM.
